Experimental findings from patent US20240343710A1, “HETEROCYCLIC COMPOUNDS AND METHODS OF USE THEREOF” (1cBio, Inc., priority 2023, published 2024) are described below.

Molecules are shown by their SMILES. Where a name gives a salt, the structure may show the parent alone. Read-outs that look alike come from different tables or passages of the source.

For one assay, the target named is recombinant human PARP2 (Homo sapiens, UniProt Q9UGN5). The assay can be described thus: PARP2 fluorescence polarization binding assay. The note with it: read-out: PARP2 % inh at 10 μM. (In general: In fluorescence polarisation assays a small probe gives low polarisation when free and higher when bound to something large.)
The test system of assay [1] is DLD-1 BRCA2(−/−) colorectal adenocarcinoma cells. The assay can be described thus: Cell viability assay (Cell Titer-Glo, 7 days), DLD-1 BRCA2(−/−). The note with it: Homo sapiens, 168 h, DLD-1 BRCA2(−/−) cells. It is filed as cell-based.
A further assay addresses recombinant human PARP1 (Homo sapiens, UniProt P09874). Description: PARP1 fluorescence polarization binding assay. The note with it: GST-tagged PARP1 20 nM, PARP1-FL probe 3 nM. In short, it runs like this: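 GST-tagged human PARP1 (20 nM final) preincubated 30 min at RT with compound (10-point 3-fold series or single concentration). PARP1-FL probe (3 nM final) added, then 4 h at RT. Buffer: 50 mM Tris pH 8.0, 10 mM MgCl2, 150 mM NaCl, 0.001% Triton X-100. FP mP values normalized to controls; IC50 from four-parameter fit.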

Assay [2] has as its system DLD-1 wild-type colorectal adenocarcinoma cells. The assay can be described thus: Cell viability assay (Cell Titer-Glo, 7 days), DLD-1 wild-type. It is filed as cell-based. The note with it: Homo sapiens, 168 h, DLD-1 wild-type cells, read-out: DLD-1 wild-type % inh at 10 μM. In general terms: In ATP-based viability assays light output follows the ATP content of the culture.

Where [3] appears, read: percent inhibition at 10 μM, fluorescence polarization, GST-tagged PARP2 20 nM, PARP1-FL probe 3 nM.

recombinant human PARP2, sequence (Q9UGN5 whole entry): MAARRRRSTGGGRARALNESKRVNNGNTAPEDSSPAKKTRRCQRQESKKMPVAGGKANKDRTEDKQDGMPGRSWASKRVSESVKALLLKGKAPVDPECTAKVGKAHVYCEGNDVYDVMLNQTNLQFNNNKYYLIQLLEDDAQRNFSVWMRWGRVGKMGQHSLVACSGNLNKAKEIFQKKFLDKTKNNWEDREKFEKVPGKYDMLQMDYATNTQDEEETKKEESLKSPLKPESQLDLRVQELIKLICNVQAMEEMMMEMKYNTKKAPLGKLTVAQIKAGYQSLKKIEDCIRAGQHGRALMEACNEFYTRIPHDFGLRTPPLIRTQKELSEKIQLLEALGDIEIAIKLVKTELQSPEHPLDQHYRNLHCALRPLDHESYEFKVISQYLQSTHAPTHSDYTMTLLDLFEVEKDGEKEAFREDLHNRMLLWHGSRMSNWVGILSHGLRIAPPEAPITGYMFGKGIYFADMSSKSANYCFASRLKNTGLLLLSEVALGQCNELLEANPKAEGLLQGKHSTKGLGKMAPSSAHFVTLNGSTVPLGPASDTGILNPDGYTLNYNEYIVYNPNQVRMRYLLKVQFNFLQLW
recombinant human PARP1, sequence (P09874 whole entry): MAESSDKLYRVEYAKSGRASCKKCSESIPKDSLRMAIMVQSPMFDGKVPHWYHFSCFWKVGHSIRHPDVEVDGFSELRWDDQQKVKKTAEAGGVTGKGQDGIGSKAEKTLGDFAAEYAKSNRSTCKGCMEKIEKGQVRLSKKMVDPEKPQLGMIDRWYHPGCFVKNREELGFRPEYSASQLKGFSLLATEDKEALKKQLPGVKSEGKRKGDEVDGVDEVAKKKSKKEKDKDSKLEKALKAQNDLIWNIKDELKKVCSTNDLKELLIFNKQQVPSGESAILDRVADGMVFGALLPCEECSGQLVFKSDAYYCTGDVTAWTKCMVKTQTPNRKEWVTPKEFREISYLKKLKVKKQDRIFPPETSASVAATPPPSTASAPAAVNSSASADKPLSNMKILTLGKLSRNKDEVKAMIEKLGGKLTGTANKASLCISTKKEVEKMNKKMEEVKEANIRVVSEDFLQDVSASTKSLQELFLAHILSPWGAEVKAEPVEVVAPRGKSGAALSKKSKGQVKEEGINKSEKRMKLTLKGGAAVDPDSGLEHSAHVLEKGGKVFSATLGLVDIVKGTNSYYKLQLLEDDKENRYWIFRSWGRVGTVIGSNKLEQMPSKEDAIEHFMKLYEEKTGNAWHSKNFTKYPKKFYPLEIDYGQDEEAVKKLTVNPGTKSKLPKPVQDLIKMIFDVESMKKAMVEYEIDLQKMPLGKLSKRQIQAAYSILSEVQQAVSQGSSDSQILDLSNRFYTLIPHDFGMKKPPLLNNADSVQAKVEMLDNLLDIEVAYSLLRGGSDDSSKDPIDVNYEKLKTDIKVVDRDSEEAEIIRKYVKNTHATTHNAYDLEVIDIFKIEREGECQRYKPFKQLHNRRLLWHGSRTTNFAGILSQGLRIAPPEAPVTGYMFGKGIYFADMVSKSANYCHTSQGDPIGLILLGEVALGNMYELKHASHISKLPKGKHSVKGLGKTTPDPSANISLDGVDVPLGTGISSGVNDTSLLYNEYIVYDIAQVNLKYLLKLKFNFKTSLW

As a reminder, the IC50 is the concentration at which inhibition is half-maximal. For the molecule `CCNC(=O)Nc1nccc(CN2CCN(c3ccc(C#N)cn3)CC2)c1F` [Compound 268, 1-(4-((4-(5-cyanopyridin-2-yl)piperazin-1-yl)methyl)-3-fluoropyridin-2-yl)-3-ethylurea], the inhibition at 10 µM (on recombinant human PARP2 (setting [3]); in assay [2]) was less than 33% each time. Besides, the IC50 in assay [1] is less than 300 nM; on recombinant human PARP1 it was less than 100 nM.

On to `CCNC(=O)Nc1cc(CN2CCN(c3ccc(NC(C)=O)nc3C)CC2)ccn1` [Compound 269, N-(5-(4-((2-(3-ethylureido)pyridin-4-yl)methyl)piperazin-1-yl)-6-methylpyridin-2-yl)acetamide], for which the inhibition at 10 µM (on recombinant human PARP2 (setting [3]); in assay [2]) was less than 33% each time. Also, the IC50 was less than 300 nM in assay [1] and less than 100 nM on recombinant human PARP1.

Take `CCNC(=O)Nc1cc(CN2CCN(c3ccc(-c4ncc[nH]4)nc3C)CC2)ccn1` [Compound 272, 1-(4-((4-(6-(1H-imidazol-2-yl)-2-methylpyridin-3-yl)piperazin-1-yl)methyl)pyridin-2-yl)-3-ethylurea formate]: the inhibition at 10 µM (on recombinant human PARP2; in assay [2]) was less than 33% throughout. The IC50 in assay [1] was less than 300 nM; at recombinant human PARP1 it was less than 100 nM.

`CCNC(=O)Nc1cc(CN2CCN(c3ccc(C(F)(F)F)cn3)CC2)ccn1` [Compound 273, 1-ethyl-3-(4-((4-(5-(trifluoromethyl)pyridin-2-yl)piperazin-1-yl)methyl)pyridin-2-yl) urea]: the inhibition at 10 µM (on recombinant human PARP2 (setting [3]); in assay [2]) was less than 33% throughout. In addition, the IC50 in assay [1] was no less than 3000 nM; on recombinant human PARP1 it was less than 100 nM.

Consider `[2H]C([2H])([2H])c1nc(C(=O)NC)ccc1N1CCN(Cc2ccnc(NC(=O)NCC)c2)CC1` [Compound 274, 5-(4-((2-(3-ethylureido)pyridin-4-yl)methyl)piperazin-1-yl)-N-methyl-6-(methyl-d3) picolinamide hemiformate], for which the inhibition at 10 µM (at recombinant human PARP2 (setting [3]); in assay [2]) was less than 33% in each case. The IC50 in assay [1] is less than 300 nM; at recombinant human PARP1 it was less than 100 nM.

In the case of `CCNC(=O)Nc1cc(CN2CCN(c3ccc(C#N)cn3)CC2)ncn1` [Compound 275, 1-(6-((4-(5-cyanopyridin-2-yl)piperazin-1-yl)methyl)pyrimidin-4-yl)-3-ethylurea], the inhibition at 10 µM (on recombinant human PARP2 (setting [3]); in assay [2]) was less than 33% throughout. Moreover, the IC50 in assay [1] was less than 300 nM; at recombinant human PARP1, less than 100 nM.

In the case of `CCNC(=O)Nc1cc(CN2CCN(c3ccc(C#N)cc3F)CC2)ccn1` [Compound 276, 1-(4-((4-(4-cyano-2-fluorophenyl)piperazin-1-yl)methyl)pyridin-2-yl)-3-ethylurea trifluoroacetate], the inhibition at 10 µM (at recombinant human PARP2; in assay [2]) was less than 33% in each case. In addition, the values for the IC50 (in assay [1]; on recombinant human PARP1) were less than 300 nM and less than 100 nM, respectively.

As for `CCNC(=O)Nc1ncc(CN2CCN(c3ccc(C(=O)NC)nc3C)CC2)n1C` [Compound 277, 5-(4-((2-(3-ethylureido)-1-methyl-1H-imidazol-5-yl)methyl)piperazin-1-yl)-N,6-dimethylpicolinamide], the inhibition at 10 µM (on recombinant human PARP2 (setting [3]); in assay [2]) was less than 33% each time. The IC50 is no less than 3000 nM in assay [1] and less than 100 nM at recombinant human PARP1.

Regarding `CCNC(=O)Nc1ncnc(CN2CCN(c3ccc(C(=O)NC)nc3F)CC2)c1F` [Compound 278, 5-(4-((6-(3-ethylureido)-5-fluoropyrimidin-4-yl)methyl)piperazin-1-yl)-6-fluoro-N-methylpicolinamide], the inhibition at 10 µM (at recombinant human PARP2 (setting [3]); in assay [2]) was less than 33% in each case. Moreover, the IC50 in assay [1] was less than 300 nM; on recombinant human PARP1, less than 100 nM.
